Data from patent publication US3978045A, “N^2 -dansyl-L-arginine derivatives, and the pharmaceutically acceptable acid addition salts thereof” (priority 1973, dated 1976).
Structures can show the parent of a compound that is named as a salt.

Target: T1, thrombin (Bos taurus, UniProt P00735)
T1 construct: mature alpha-thrombin (light plus heavy chain) cut from prothrombin
Assay: Fibrinogen coagulation time (thrombin-induced clotting of fibrinogen)
Assay type: biochemical
Details: bovine fibrinogen, borate saline buffer pH 7.4, thrombin 0.1 ml of 5 units/ml, 25°C; control coagulation time 50-55 seconds; read-out: Concentration required to prolong the coagulation time by a factor of 2
Protocol: The antithrombotic activities of the N^2 -dansyl-L-arginine derivatives of this invention were compared with those of a known antithrombotic agent, (N^2 -(p-tolylsulfonyl)-L-arginine methyl ester). by determining the fibrinogen coagulation time. The measurement of the fibrinogen coagulation time was conducted as follows:
Immediately after mixing, the reaction mixture was transferred from the ice bath to a bath thermostated at 25°C. Coagulation times were taken as the period between the time of transference to the 25°C bath and the time of the first appearance of fibrin threads.
The term "concentration required to prolong the coagulation time by a factor of two" is the concentration of an active ingredient required to prolong the normal coagulation time 50-55 seconds to 100-110 seconds.

Structure (SMILES) | IC (2-fold clotting time) [µM]
CCOC(=O)[C@H](CCCNC(=N)N)NS(=O)(=O)c1cccc2c(N(C)C)cccc12 [Sample 2, N^2 -dansyl-L-arginine ethyl ester dihydrochloride] | 8
CCCOC(=O)[C@H](CCCNC(=N)N)NS(=O)(=O)c1cccc2c(N(C)C)cccc12 [Sample 3, N^2 -dansyl-L-arginine n-propyl ester] | 2
CC(C)OC(=O)[C@H](CCCNC(=N)N)NS(=O)(=O)c1cccc2c(N(C)C)cccc12 [Sample 4, N^2 -dansyl-L-arginine isopropyl ester dihydrochloride] | 30
CC(C)COC(=O)[C@H](CCCNC(=N)N)NS(=O)(=O)c1cccc2c(N(C)C)cccc12 [Sample 6, N^2 -dansyl-L-arginineisobutyl ester di(p-toluene sulfonate)] | 110
CC=CCOC(=O)[C@H](CCCNC(=N)N)NS(=O)(=O)c1cccc2c(N(C)C)cccc12 [Sample 12, N^2 -dansyl-L-arginine crotyl ester] | 2
C#CCCOC(=O)[C@H](CCCNC(=N)N)NS(=O)(=O)c1cccc2c(N(C)C)cccc12 [Sample 13, N^2-dansyl-L-arginine 3-butynyl ester] | 4
CN(C)c1cccc2c(S(=O)(=O)N[C@@H](CCCNC(=N)N)C(=O)OC3CCCCC3)cccc12 [Sample 14] | 60
CN(C)c1cccc2c(S(=O)(=O)N[C@@H](CCCNC(=N)N)C(=O)OCC3CCCO3)cccc12 (stereo partly drawn) [Sample 15] | 20
COCCOC(=O)[C@H](CCCNC(=N)N)NS(=O)(=O)c1cccc2c(N(C)C)cccc12 [Sample 16, N^2-dansyl-L-arginine 2-methoxyethyl ester] | 5
CN(C)c1cccc2c(S(=O)(=O)N[C@@H](CCCNC(=N)N)C(=O)OCCCCCl)cccc12 [Sample 18, N^2-dansyl-L-arginine 4-chlorobutyl ester] | 7
CCC(COC(=O)[C@H](CCCNC(=N)N)NS(=O)(=O)c1cccc2c(N(C)C)cccc12)[N+](=O)[O-] (stereo partly drawn) [Sample 19] | 200
CCNC(=O)[C@H](CCCNC(=N)N)NS(=O)(=O)c1cccc2c(N(C)C)cccc12 [Sample 20, N^2 -dansyl-N-ethyl-L-argininamide monohydrate] | 100
CCCNC(=O)[C@H](CCCNC(=N)N)NS(=O)(=O)c1cccc2c(N(C)C)cccc12 [Sample 21, N^2 -dansyl-N-(n-propyl)-L-argininamide monohydrate] | 15
CCCCNC(=O)[C@H](CCCNC(=N)N)NS(=O)(=O)c1cccc2c(N(C)C)cccc12 [Sample 22, N^2 -dansyl-N-(n-butyl)-L-argininamide monohydrate] | 25
CCCCCNC(=O)[C@H](CCCNC(=N)N)NS(=O)(=O)c1cccc2c(N(C)C)cccc12 [Sample 23] | 125
CCCCCCNC(=O)[C@H](CCCNC(=N)N)NS(=O)(=O)c1cccc2c(N(C)C)cccc12 [Sample 24, N^2 -dansyl-N-(n-hexyl)-L-argininamide monohydrate] | 20
CCCCCCCNC(=O)[C@H](CCCNC(=N)N)NS(=O)(=O)c1cccc2c(N(C)C)cccc12 [Sample 25, N^2 -dansyl-N-(n-heptyl)-L-argininamide] | 100
CC(C)NC(=O)[C@H](CCCNC(=N)N)NS(=O)(=O)c1cccc2c(N(C)C)cccc12 [Sample 26, N^2 -dansyl-N-isopropyl-L-argininamide] | 1000
CC(C)CNC(=O)[C@H](CCCNC(=N)N)NS(=O)(=O)c1cccc2c(N(C)C)cccc12 [Sample 27, N^2 -dansyl-N-isobutyl-L-argininamide] | 100
COCCNC(=O)[C@H](CCCNC(=N)N)NS(=O)(=O)c1cccc2c(N(C)C)cccc12 [Sample 28, N^2-dansyl-N-(2-methoxyethyl)-L-argininamide dihydrate] | 4
COCCCNC(=O)[C@H](CCCNC(=N)N)NS(=O)(=O)c1cccc2c(N(C)C)cccc12 [Sample 29] | 65
